Laboratory results published in article PMC1940322, “The Effect of PPARα, PPARδ, PPARγ, and PPARpan Agonists on Body Weight, Body Mass, and Serum Lipid Profiles in Diet-Induced Obese AKR/J Mice” (PPAR Research, 2007).

Columns and labels:
Assay type in all cases: in vivo
[1] = tested on: diet-induced obese (DIO) AKR/J mouse; experiment: Food consumption in diet-induced obese AKR/J mice; details: compared to vehicle-treated animals; doses and regimen as in methods
Procedure: (§1) In each experiment, BW of each animal was measured and recorded three times weekly throughout the treatment period. Body mass was obtained weekly on days 0, 7, 13, 20, and 27 of treatment. The effects of selective PPARα, δ, and γ agonists on food consumption were also assessed. Food consumption is expressed as total energy consumed (kcal) over a 24-period and as cumulative consumption over the course of the experiment.
The fat content of Research Diets D12331 chow results in pellets that crumbles making it difficult to quantify food consumption thus, Research Diets D12451 chow (4.7 kcal/g (45% kcal from fat, 35% kcal from carbohydrates and 20% kcal from protein)) was used in studies where food consumption was determined as these pellets are more solid. The animals were transitioned two weeks before compound dosing from Research Diets D12331 chow to Research Diets D12451 chow. Previous experiments (data not presented) have shown that animals fed this diet maintain the same BW and fat mass level as observed at the time of transition.
(§2) Experiment 1 was designed to study the effects of a selective PPARα agonist and PPARδ agonist as mono and combination therapy. 48 mice were sorted into 6 groups and blocked such that initial BW and body composition were not different between groups. […] Two additional groups of mice were dosed for the first 14 days with either a PPARα agonist or a PPARδ agonist alone. At day 15, the PPARδ agonist was added to the treatment regimen of animals dosed with PPARα, and the PPARα agonist was added to the dosing material of animals previously dosed with PPARδ alone. The sixth group was dosed with both the PPARα and PPARδ agonists for the entire 28-day period. BW and food consumption were assessed 3 times per week and body composition was measured weekly.
In Experiment 2, 32 mice were sorted into 4 groups (n = 8/group) and dosed with vehicle and a selective PPARγ agonist (GW7845, 3 mg/kg) for 28 days. Rimonabant (RIM, 10 or 30 mg/kg, q.d.), a CB1 receptor antagonist, was used as a positive control for weight loss. As in Experiment 1, BW and food consumption were determined 3 times per week and body composition was measured weekly.

[2] = tested on: diet-induced obese (DIO) AKR/J mouse; experiment: Serum clinical chemistry of terminal blood samples, DIO AKR/J mice; details: serum, end of treatment, 28 days
Procedure: (§3) On the final day of each experiment, a terminal blood sample (800–1000 μL) was obtained via cardiac puncture under isoflurane anesthesia. Whole blood was placed in a Terumo Capiject blood collection tube (Terumo Medical Corp., Elkton, Md, USA), allowed to sit at room temperature for 20 minutes then centrifuged to obtain serum. Serum levels of glucose, triglycerides, glycerol, nonesterified fatty acids, total cholesterol, the high-density lipoprotein cholesterol, and β-hydroxybutyrate were determined in all mice using an Olympus AU640 clinical chemistry immuno-analyzer (Olympus America Inc., Melville, NY, USA). In addition, liver weights were obtained following the terminal blood sample on the final day of the study and samples were used to determine liver fatty acid oxidation activity.

[3] = tested on: diet-induced obese (DIO) AKR/J mouse; experiment: Body weight, body composition (qMR) and liver weight in diet-induced obese AKR/J mice; details: for BW day 0: baseline before treatment; for Fat mass day 28 / Lean mass day 28: qMR; for Liver weight: terminal collection
Procedure: The effects of monotherapy with selective PPAR agonists, combination therapy with PPARα and PPARδ, and treatment with PPARpan agonists were evaluated in four experiments in diet-induced obese (DIO) AKR/J mouse. The AKR/J mouse is a polyoma-susceptible strain originally utilized to study accelerated tumor development. This strain becomes obese and hyperinsulemic when fed a high fat diet. Age-matched, male AKR/J mice were allowed ad libitum access to Research Diet D12331 (Research Diet, Brunswick, NJ) at the Jackson Laboratories (Bar Harbor, ME) beginning at 6 weeks of age. The diet has an energy density of 5.56 kcal/g (58% kcal from fat; 26% kcal from carbohydrates, and 16% kcal from protein). The animals were allowed to become obese, achieving BW >40 grams before shipping to GlaxoSmithKline laboratory animal facility at 13 weeks of age. The mice were housed 4 per cage in standard shoebox cages and were fed the high fat diet until they reached approximately 50 grams. Age-matched lean control animals obtained from Jackson Laboratories were fed a diet of normal chow (3.04 kcal/g energy density, 12% kcal from fat, LabDiet 5001, St. Louis, MO) and used for comparison.
At the beginning of each study, the animals were weighed and body composition obtained using an EchoMRI-100 quantitative magnetic resonance (qMR, EchoMRI, Houston, TX) whole body composition analyzer. […] 16 lean control mice on standard chow were used as reference. All mice were dosed orally with vehicle (0.5% methylcellulose and 0.1% Tween 80, 10 mL/kg) for six days prior to the beginning of dosing for acclimation to handling and treatment before drug treatment was initiated.
as §1, §3, §2
In Experiment 2, 32 mice were sorted into 4 groups (n = 8/group) and dosed with vehicle and a selective PPARγ agonist (GW7845, 3 mg/kg) for 28 days. Rimonabant (RIM, 10 or 30 mg/kg, q.d.), a CB1 receptor antagonist, was used as a positive control for weight loss. […]

Cc1c(C(=O)NN2CCCCC2)nn(-c2ccc(Cl)cc2Cl)c1-c1ccc(Cl)cc1 [RIM, Rimonabant, reference compound] was tested, and the “effect on food consumption (in words)” value [1] was “dose-related decreases in food consumption”, the Cholesterol ([2]; 10 mg/kg oral) was 147.3 ± 9.1 mg/dL and the Glucose ([2]; 10 mg/kg oral) was 230.1 ± 16.6 mg/dL. It also gave an HDL-C ([2]; 10 mg/kg oral) of 95.1 ± 4.6 mg/dL, an Insulin ([2]; 10 mg/kg oral) of 7.2 ± 2.5 ng/mL and an NEFA ([2]; 10 mg/kg oral) of 0.8 ± 0.05 mEq/L. It also gave a Triglyceride ([2]; 10 mg/kg oral) of 181.4 ± 36.1 mg/dL, a bHBA ([2]; 10 mg/kg oral) of 2.5 ± 0.2 mg/dL and a Cholesterol ([2]; 30 mg/kg oral) of 143.4 ± 4.0 mg/dL. The Glucose ([2]; 30 mg/kg oral) was 215.3 ± 13.0 mg/dL, the HDL-C ([2]; 30 mg/kg oral) was 116.9 ± 2.6 mg/dL and the Insulin ([2]; 30 mg/kg oral) was 3.4 ± 0.7 ng/mL. The NEFA ([2]; 30 mg/kg oral) was 0.9 ± 0.02 mEq/L, the Triglyceride ([2]; 30 mg/kg oral) was 159.7 ± 16.1 mg/dL and the bHBA ([2]; 30 mg/kg oral) was 1.8 ± 0.2 mg/dL. For the same molecule, the “BW day 28” value ([3]; 10 mg/kg oral, 28 days) was 44.1 ± 1.3 grams, the “BW day 28” value ([3]; 30 mg/kg oral, 28 days) was 41.8 ± 0.5 grams and the “effect on FM (in words)” value ([3]; 28 days, doses as in methods) was “decreased FM in a dose-dependent manner”. The “BW day 0” value ([3]; group dosed 10 mg/kg oral) was 50.6 ± 0.8 grams, the “BW day 0” value ([3]; group dosed 30 mg/kg oral) was 51.0 ± 0.7 grams and the “reduction of BW” value ([3]; highest dose (30 mg/kg), within the first 10 days of treatment) was 17%. The “effect on BW (in words)” value ([3]; oral, 28 days, GW9578 1, GW0742 30, GW7845 3, RIM 10 and 30 mg/kg, PPARpan agonists) was “significant, dose-related decreases of BW”, the “Fat mass day 28” value ([3]; 10 mg/kg oral, 28 days) was 15.0 ± 0.9 grams and the “Lean mass day 28” value ([3]; 10 mg/kg oral, 28 days) was 25.2 ± 0.8 grams. The “Fat mass day 28” value ([3]; 30 mg/kg oral, 28 days) was 11.6 ± 0.3 grams, the “Lean mass day 28” value ([3]; 30 mg/kg oral, 28 days) was 26.5 ± 0.5 grams and the Liver weight ([3]; 10 mg/kg oral, 28 days) was 2.0 ± 0.1 grams. It also gave a Liver weight ([3]; 30 mg/kg oral, 28 days) of 2.0 ± 0.1 grams.
